Measurements taken from US20160067232A1, “METHODS FOR TREATING A STROKE-RELATED SENSORIMOTOR IMPAIRMENT USING AMINOPYRIDINES” (Acorda Therapeutics, Inc., priority 2011, published 2016).
Several values for one entry are separate records, joined by “and”; a condition that tells them apart may be missing. Equal entries are not always repeated.

Tests used:
[1] = system: rats with middle cerebral artery occlusion (MCAO); assay: Cylinder test, overall asymmetry (%), MCAO rats (Example 2); format: in vivo, Sprague Dawley rat
Method: Dosing and Treatment: Rats were treated in accordance with the dosing schedule shown in Tables 2A, 2B, 3 and FIG. 2, with each Phase being a two week period of time. A solution of 4-AP was used in this experiment. Dosing was started at 4 weeks after ischemic event. 4-aminopyridine was dissolved in water for injection (WFI, Cellgro) and sterile filtered. […] Vehicle control treatment was WFI delivered at 2 mL/kg by gastric gavage. […] Starting on day 30 after MCAO (Day 30, start of phase 1), the animals received gavage dosing of solutions (2 mL/kg) approximately 12 hours apart, for a total of five doses. The same schedule was repeated with different treatment on Day 44 and Day 58 for phase 2 and 3 of the study, respectively. Animals were not treated during the 10 days between phases (washout period). Treatment groups: Dosing was started 4 weeks after MCAO surgery. During these 4 weeks, weekly behavioral assessments, as defined below, were performed. Two dose levels of 4-AP plus vehicle control were assessed, with treatment starting at 4 weeks after ischemic event. […] Animals were given the first dose and behavioral assessments were performed starting 60 minutes after dosing. Animals then received the second dose that day at the appropriate time and b.i.d (preferably every 12 hours) thereafter for 2 more days (3 total days of dosing, 5 total doses). One hour after the 5th dose, animals were subjected to behavioral assessments as defined below. Following the final behavioral assessment, drug was withdrawn for 10 or 11 days, behavior was re-assessed, and then animals were re-challenged with a cross-over treatment (Phase 2 of Table 2B) as described in Tables 2A, 2B and 3, followed by the same behavioral testing and dosing regimen. This cross-over was repeated one more time as well (Phase 3 of Table 2B) (see FIG. 2). Cylinder Test: Evaluation was performed at Day −1 (pre-operation), Day 7, Day 21, Day 30, Day 32, Day 44, Day 46, Day 58, Day 60. This test assessed limb use asymmetry. Rats were placed in a transparent cylinder (20 cm in diameter and 30 cm in height) for 3-6 minutes. A mirror was placed behind the cylinder to determine forelimb movements when animal was turned away from the camera. […] Simultaneous use of both left and right forelimbs while contacting the wall during a full rear was also scored. A total number of 20 forelimb placings were counted during a trial. Data was expressed in terms of percent use of the non-impaired and or impaired forelimb relative to the total number of limb use observations for wall movements.

[2] = system: rats with middle cerebral artery occlusion (MCAO); assay: Body swing test, MCAO rats, dose escalation study (Example 17); format: in vivo, Sprague Dawley rat; details: groups diverged prior to treatment initiation (FIG. 13)
Method: Body Swing: Evaluated at Day −1 (pre-operation), Day 1, Day 7, Day 14, Day 21, Day 28, Day 30, Day 32, Day 42, Day 44, Day 46, Day 56, Day 58, Day 60. Body swing was evaluated by counting head movements to one side or the other when suspended by tail. For this test, the rat was held approximately one (1) inch from the base of its tail. It was then elevated to an inch above a surface of a table. The rat was held in the vertical axis, defined as no more than 10° to either the left or the right side. A swing was recorded whenever the rat moved its head out of the vertical axis to either side. Before attempting another swing, the rat had to return to the vertical position for the next swing to be counted. Thirty (30) total swings were counted. […] Body swing scores were expressed as a percentage of rightward over total swings. […]
4-AP was evaluated for its ability to promote functional sensorimotor improvement following ischemic stroke in rats with stable motor deficits at times remote from their ischemic events. […]
Body Swing: Evaluated at Day −1 (pre-operation), Day 1, Day 7, Day 14, Day 21, Day 28, Day 35, Day 42, Day 49, Day 56, Day 59, Day 62, Day 65, Day 70. […]
Statistical Methods: Changes from pre-treatment baseline values (Day 56) were calculated for each behavioral score at each time point assessed after dosing. […]

SMILES: Nc1ccncc1 [4-aminopyridine]
- Cylinder Test Score (Overall Asymmetry (%)) Group 2, D30 ([1]; Group 2, D30, treatment phase 1 (low-dose 4-AP), individual animals and Mean (N=15), listed as 4-AP): 0.00% and 75.00% and 23.33% and 20.00% and 6.90%
- Cylinder Test Score (Overall Asymmetry (%)) Group 2, D32 ([1]; Group 2, D32, treatment phase 1 (low-dose 4-AP), individual animals and Mean (N=15), listed as 4-AP): 33.33% and 16.00% and 20.00% and 50.00% and 0.00%
- Cylinder Test Score (Overall Asymmetry (%)) Group 2, D58 ([1]; Group 2, D58, treatment phase 3 (high-dose 4-AP), individual animals and Mean (N=12), listed as 4-AP): 50.00% and 30.00% and 88.00% and 33.33%
- Cylinder Test Score (Overall Asymmetry (%)) Group 2, D60 ([1]; Group 2, D60, treatment phase 3 (high-dose 4-AP), individual animals and Mean (N=14), listed as 4-AP): 64.00% and 20.00% and 10.00% and 0.00% (3×) and −100.00% (2×)
- Cylinder Test Score (Overall Asymmetry (%)) Group 3, D44 ([1]; Group 3, D44, treatment phase 2 (high-dose 4-AP), individual animals and Mean (N=13), listed as 4-AP): 40.00% and 20.00% and 100.00% and 0.00%
- Cylinder Test Score (Overall Asymmetry (%)) Group 3, D46 ([1]; Group 3, D46, treatment phase 2 (high-dose 4-AP), individual animals and Mean (N=13), listed as 4-AP): 50.00% and −60.00% and 0.00% and 6.90%
- Cylinder Test Score (Overall Asymmetry (%)) Group 3, D58 ([1]; Group 3, D58, treatment phase 3 (low-dose 4-AP), individual animals and Mean (N=15), listed as 4-AP): 0.00% (2×) and 5.00%
- Cylinder Test Score (Overall Asymmetry (%)) Group 3, D60 ([1]; Group 3, D60, treatment phase 3 (low-dose 4-AP), individual animals and Mean (N=15), listed as 4-AP): −25.00% and 0.00% (2×) and 16.00%
- Effect on body symmetry and coordination, cylinder test (FIG. 7) ([1]; reversible and dose-dependent): effective to improve body symmetry and coordination
- Body swing performance [2]: no conclusions can be drawn
